Data on two molecules can be found in patent US12396966B2, “Pharmaceutical compositions and oral dosage forms of ketamine derivatives” (XWPHARMA LTD., priority 2021, dated 2025).

For series [1] the following is noted: humans; cited from earlier work.
A short description of series [2]: Preclinical pharmacokinetic studies: dose proportionality and repeated dosing. It is filed as in vivo.
The nature of series [3]: Preclinical pharmacokinetic studies. It is filed as in vivo. The following applies: monkeys.
A short description of series [4]: Preclinical pharmacokinetic studies. It counts as in vivo. The note with it: rats.
Series [5] is described as follows: Preclinical pharmacokinetic studies. It is filed as in vivo. The note with it: mice.
For series [6], the target named is CYP2C19 (Homo sapiens, UniProt P33261). The experiment in a line: Preclinical studies: metabolism of compound (39) to release esketamine. It counts as in vitro ADME.
Series [7] in a line: Two-stage dissolution of tablets (0.1N HCl 1 hour, then 50 mM acetate buffer pH 4.5). It counts as physicochemical. The note with it: FIG. 2. On the procedure: The two-stage dissolution profiles were obtain as described in Example 5.
A two-stage dissolution apparatus was used to measure the dissolution profile of the tablets.
In the first stage, the tablets were immersed in 0.1N HCl a dissolution medium for 1 hour.
The dissolution medium was then immediately charged to a 50 mM acetate buffer at pH 4.5 immediately following 1 hour sampling via addition of 100 mM acetate buffer with appropriate pH and continued through 18 hours.
Two-stage dissolution profiles for the tablets were obtained using a USP 1 dissolution apparatus. The tablets were first added to 500 mL of a 0.1N hydrochloric acid solution and agitated at 100 RPM for 1 hour at 37° C. Samples (1 mL) were withdrawn at 0, 0.5 and 1 hours. The acid solution was then replaced with 1,000 mL of a 50 mM pH 4.5 acetate buffer solution and the tablets agitated at 100 RPM for up to 24 hours at 37° C. Samples (1 mL) were withdrawn at 1.5, 2, 3, 4, 6, 8, 12, 16, 20, and 24 hours. Solution samples were withdrawn at intervals and the concentration of Compound (39) was measured using high pressure liquid chromatography mass spectroscopy.

A short description of series [8]: Preclinical pharmacokinetic studies. It is filed as in vivo. The note with it: dogs.
For series [9], the target named is CYP2D6 (Homo sapiens, UniProt P10635). The experiment in a line: Preclinical studies: metabolism of compound (39) to release esketamine. It is filed as in vitro ADME.
Series [10] concerns the target CYP3A4 (Homo sapiens, UniProt P08684). The description is as above. It counts as in vitro ADME.

Sequence of CYP3A4 (P08684 whole entry, species assumed): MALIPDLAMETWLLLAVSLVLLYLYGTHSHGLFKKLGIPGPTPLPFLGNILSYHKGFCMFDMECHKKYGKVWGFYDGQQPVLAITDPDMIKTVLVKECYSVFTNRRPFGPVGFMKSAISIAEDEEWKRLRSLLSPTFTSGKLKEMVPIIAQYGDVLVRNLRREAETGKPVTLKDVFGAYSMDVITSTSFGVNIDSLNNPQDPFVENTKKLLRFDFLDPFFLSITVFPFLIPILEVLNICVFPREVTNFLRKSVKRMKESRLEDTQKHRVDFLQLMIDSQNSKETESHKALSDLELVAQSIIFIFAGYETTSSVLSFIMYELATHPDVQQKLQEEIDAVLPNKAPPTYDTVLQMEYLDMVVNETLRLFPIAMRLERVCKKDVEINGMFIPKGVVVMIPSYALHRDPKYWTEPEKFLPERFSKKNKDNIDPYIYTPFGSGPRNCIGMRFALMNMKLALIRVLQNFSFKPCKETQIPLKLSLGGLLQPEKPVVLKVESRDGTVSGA
Sequence of CYP2C19 (P33261 whole entry, species assumed): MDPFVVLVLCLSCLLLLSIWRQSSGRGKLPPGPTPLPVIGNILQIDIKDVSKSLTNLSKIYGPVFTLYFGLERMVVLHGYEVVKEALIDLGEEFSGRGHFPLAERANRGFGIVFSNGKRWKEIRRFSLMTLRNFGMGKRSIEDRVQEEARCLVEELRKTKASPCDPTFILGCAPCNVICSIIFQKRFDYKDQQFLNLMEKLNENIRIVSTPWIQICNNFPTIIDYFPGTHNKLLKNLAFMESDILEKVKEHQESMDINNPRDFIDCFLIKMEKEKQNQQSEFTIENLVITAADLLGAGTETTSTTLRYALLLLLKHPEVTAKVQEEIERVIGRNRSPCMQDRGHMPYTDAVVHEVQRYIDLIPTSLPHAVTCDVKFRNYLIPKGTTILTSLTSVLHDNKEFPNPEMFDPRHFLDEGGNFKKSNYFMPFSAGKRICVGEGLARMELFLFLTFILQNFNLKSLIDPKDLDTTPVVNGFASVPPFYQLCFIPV
Sequence of CYP2D6 (P10635 whole entry, species assumed): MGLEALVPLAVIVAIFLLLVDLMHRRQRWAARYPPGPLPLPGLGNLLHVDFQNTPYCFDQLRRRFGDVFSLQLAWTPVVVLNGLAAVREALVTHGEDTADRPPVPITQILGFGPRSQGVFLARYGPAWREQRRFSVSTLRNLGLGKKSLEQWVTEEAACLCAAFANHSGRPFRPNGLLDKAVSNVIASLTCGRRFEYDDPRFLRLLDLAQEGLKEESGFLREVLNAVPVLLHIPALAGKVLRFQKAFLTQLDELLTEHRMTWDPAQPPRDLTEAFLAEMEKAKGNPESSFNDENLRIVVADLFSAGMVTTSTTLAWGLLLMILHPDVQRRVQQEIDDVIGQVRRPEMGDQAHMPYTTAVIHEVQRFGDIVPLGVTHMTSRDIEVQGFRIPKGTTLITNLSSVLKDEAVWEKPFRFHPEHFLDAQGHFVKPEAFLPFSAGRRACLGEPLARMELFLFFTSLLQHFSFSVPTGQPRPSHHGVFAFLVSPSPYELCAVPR

As for `CNC1(c2ccccc2Cl)CCCCC1=O` (stereo not drawn) [Ketamine, 2-(2-chlorophenyl)-2-(methylamino)cyclohexan-one], the “oral bioavailability (% F)” value in series [1] is “about 20%”.

`CC(C)[C@@H](C(=O)OCOC(=O)N(C)[C@]1(c2ccccc2Cl)CCCCC1=O)N(C)C` [compound (39), ((((S)-1-(2-chlorophenyl)-2-oxocyclohexyl)(methyl)carbamoyl)oxy)methyl dimethyl-L-valinate]: the “accumulation of compound (39) and its metabolites” value in series [2] (following repeated dosing) is “not observed”. Moreover, the “systemic exposure, expressed as AUC: dose proportionality” value in series [2] (for compound (39), esketamine, and noresketamine) is “less than to greater than dose proportional”. For the same molecule, the “absorption and conversion to esketamine” value in series [3] is “rapid absorption and conversion to esketamine”; in [4], “rapid absorption and conversion to esketamine”; in series [5] it was “rapid absorption and conversion to esketamine”; in series [8], “rapid absorption and conversion to esketamine”. The “metabolism by CYP2C19 to release esketamine” value in series [6] was “metabolized”. In addition, in series [7] (acid stage (0.1N HCl), tablets with and without sodium lauryl sulfate), the “effect of sodium lauryl sulfate on solubility of compound (39)” value is “reduces the solubility”. In addition, the dissolution rate result in series [7] (pH 4.5, tablets with and without sodium lauryl sulfate) is listed as “approximately independent of the amount of sodium lauryl sulfate”. Also, in series [9], the “metabolism by CYP2D6 to release esketamine” value was “metabolized”. Also, the “metabolism by CYP3A4 to release esketamine” value in series [10] is “metabolized”.
